In PubChem BioAssay AID1919006 (Molecular Pharmacology Branch, DTP, NCI, 2023):
“And” between values parts separate entries of the source, which are not always exact repeats. Equal entries are not always repeated.

System: 885512-296-R-J2-PDC complex spheroid growth, % test/control
Test: Anticancer human tumor 885512-296-R-J2-PDC patient-derived breast carcinoma cell line growth inhibition [AhR]
Conditions: for viability, T/C: stronger effect = lower value
Procedure, shortened: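 Spheroids combined tumor cells with HUVEC endothelial cells and human MSCs as stroma. AhR antagonists were paired with standard or investigational drugs, each dosed in half-log steps down from near clinical Cmax, or from 10 microM where Cmax was unknown.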

[1] = curve of first compound, second compound 0.1 µM
[2] = curve of first compound, second compound 0.316 µM
[3] = curve of first compound, second compound 1 µM
[4] = curve of first compound, second compound 3.16 µM
[5] = curve of first compound, second compound 10 µM
[6] = second compound 0.1 µM, first compound 0.0316 µM
[7] = second compound 0.1 µM, first compound 0.1 µM
[8] = second compound 0.1 µM, first compound 0.316 µM
[9] = second compound 0.1 µM, first compound 1 µM
[10] = second compound 0.1 µM, first compound 3.16 µM
[11] = second compound 0.1 µM, first compound 10 µM
[12] = second compound 0.316 µM, first compound 0.0316 µM
[13] = second compound 0.316 µM, first compound 0.1 µM
[14] = second compound 0.316 µM, first compound 0.316 µM
[15] = second compound 0.316 µM, first compound 1 µM
[16] = second compound 0.316 µM, first compound 3.16 µM
[17] = second compound 0.316 µM, first compound 10 µM
[18] = second compound 1 µM, first compound 0.0316 µM
[19] = second compound 1 µM, first compound 0.1 µM
[20] = second compound 1 µM, first compound 0.316 µM
[21] = second compound 1 µM, first compound 1 µM
[22] = second compound 1 µM, first compound 3.16 µM
[23] = second compound 1 µM, first compound 10 µM
[24] = second compound 3.16 µM, first compound 0.0316 µM
[25] = second compound 3.16 µM, first compound 0.1 µM
[26] = second compound 3.16 µM, first compound 0.316 µM
[27] = second compound 3.16 µM, first compound 1 µM
[28] = second compound 3.16 µM, first compound 3.16 µM
[29] = second compound 3.16 µM, first compound 10 µM
[30] = second compound 10 µM, first compound 0.0316 µM
[31] = second compound 10 µM, first compound 0.1 µM
[32] = second compound 10 µM, first compound 0.316 µM
[33] = second compound 10 µM, first compound 1 µM
[34] = second compound 10 µM, first compound 3.16 µM
[35] = second compound 10 µM, first compound 10 µM
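Also: spheroids exposed to compounds for seven days.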

CC1(C)CCC(CN2CCN(c3ccc(C(=O)NS(=O)(=O)c4ccc(NCC5CCOCC5)c([N+](=O)[O-])c4)c(Oc4cnc5[nH]ccc5c4)c3)CC2)=C(c2ccc(Cl)cc2)C1 + Cc1cncc(-c2nc(NCCc3c[nH]c4ccccc34)c3ncn(C(C)C)c3n2)c1
IC50 [1]: 5.31 µM | IC50 [2]: 5.22 µM | IC50 [3]: 3.86 µM | IC50 [4]: < 0.0316 µM | IC50 [5]: < 0.0316 µM | viability, T/C [6]: 108% | viability, T/C [7]: 120% | viability, T/C [8]: 100% | viability, T/C [9]: 97.9% | viability, T/C [10]: 73% | viability, T/C [11]: 21.9% | viability, T/C [12]: 95.8% | viability, T/C [13]: 98.3% | viability, T/C [14]: 97% | viability, T/C [15]: 100% | viability, T/C [16]: 68.4% | viability, T/C [17]: 26.2% | viability, T/C [18]: 87.5% | viability, T/C [19]: 84.5% | viability, T/C [20]: 77.8% | viability, T/C [21]: 71.8% | viability, T/C [22]: 57% | viability, T/C [23]: 23.2% | viability, T/C [24]: 42.2% | viability, T/C [25]: 49.5% | viability, T/C [26]: 50.7% | viability, T/C [27]: 41.4% | viability, T/C [28]: 39.7% | viability, T/C [29]: 29.8% | viability, T/C [30]: 12.7% | viability, T/C [31]: 13.7% | viability, T/C [32]: 14.3% | viability, T/C [33]: 12.4% | viability, T/C [34]: 13.8% | viability, T/C [35]: 10.1%

O=C(c1cc(Cc2n[nH]c(=O)c3ccccc23)ccc1F)N1CCN(C(=O)C2CC2)CC1
viability, T/C (compound 0.0316 µM): 101% and 131% and 106% | viability, T/C (compound 0.1 µM): 109% and 125% and 105% | viability, T/C (compound 0.316 µM): 133% and 134% and 148% | viability, T/C (compound 1 µM): 141% and 121% and 151% | viability, T/C (compound 3.16 µM): 113% and 81.3% and 93.8% | viability, T/C (compound 10 µM): 34.5% and 20.2% and 30.2% | IC50 (curve of compound): 8.01 µM and 5.7 µM and 6.98 µM

CC1COCCN1c1cc(C2(S(C)(=N)=O)CC2)nc(-c2ccnc3[nH]ccc23)n1 (centres undefined) + Cc1ccccc1N=Nc1ccc(NC(=O)c2ccnn2C)c(C)c1
IC50 [1]: 1.87 µM | IC50 [2]: 1.7 µM | IC50 [3]: 1.79 µM | IC50 [4]: 1.84 µM | IC50 [5]: 0.637 µM | viability, T/C [6]: 108% | viability, T/C [7]: 102% | viability, T/C [8]: 96.3% | viability, T/C [9]: 87% | viability, T/C [10]: 19% | viability, T/C [11]: 4.98% | viability, T/C [12]: 103% | viability, T/C [13]: 127% | viability, T/C [14]: 106% | viability, T/C [15]: 77.9% | viability, T/C [16]: 17.9% | viability, T/C [17]: 5.69% | viability, T/C [18]: 108% | viability, T/C [19]: 117% | viability, T/C [20]: 95% | viability, T/C [21]: 83.6% | viability, T/C [22]: 17.4% | viability, T/C [23]: 5.01% | viability, T/C [24]: 90% | viability, T/C [25]: 92% | viability, T/C [26]: 97.6% | viability, T/C [27]: 85.7% | viability, T/C [28]: 17.9% | viability, T/C [29]: 5.33% | viability, T/C [30]: 56.9% | viability, T/C [31]: 53.3% | viability, T/C [32]: 49.6% | viability, T/C [33]: 48.2% | viability, T/C [34]: 13.4% | viability, T/C [35]: 5.82%

CC1(C)CCC(CN2CCN(c3ccc(C(=O)NS(=O)(=O)c4ccc(NCC5CCOCC5)c([N+](=O)[O-])c4)c(Oc4cnc5[nH]ccc5c4)c3)CC2)=C(c2ccc(Cl)cc2)C1
viability, T/C (compound 0.0316 µM): 110% and 95.6% and 109% | viability, T/C (compound 0.1 µM): 109% and 91.1% and 99.6% | viability, T/C (compound 0.316 µM): 91.2% and 87.2% and 101% | viability, T/C (compound 1 µM): 94.4% and 79.7% and 98% | viability, T/C (compound 3.16 µM): 59.5% and 62.4% and 71.5% | viability, T/C (compound 10 µM): 24.6% and 16.2% and 41.4% | IC50 (curve of compound): 4.59 µM and 4.22 µM and 7.2 µM
